Assay results taken from the supplement of paper PMC7394473.

Columns and labels:
Details in all cases: 72 h
U2OS [1] = experiment: FV IC50 (concentration giving fractional viability 0.5); higher = less potent killing
Procedure: (§1)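 U2OS cells treated with full dose titrations of drug; live and dead cells counted by STACK microscopy (mKate2 nuclei, SYTOX Green) at 72 h, biological triplicates. GR and FV dose responses were fitted with 4-parameter logistic models (GR lower bound -1). GRADE (0-100) is the rescaled angle of a linear fit of FV versus GR at doses with GR >= 0, giving the percentage of the response due to cell death.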

U2OS [2] = experiment: drug GRADE (percent of response due to cell death) (% (0-100)); higher = more death-driven response
Procedure: as §1

U2OS [3] = experiment: GRmin (fitted minimal GR value at highest effect) (GR value (dimensionless)); higher = less efficacious
Procedure: as §1

U2OS [4] = experiment: normalized growth rate inhibition value (GR) relative to untreated cells (GR value (dimensionless, 1 = untreated growth)); higher = less growth inhibition
Procedure: (§2)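 U2OS::Nuc-mKate2 cells seeded in 96-well plates and treated with eight- to ten-point half-log or log dilutions of drug in the presence of 50 nM SYTOX Green. Live (mKate2+) and dead (SYTOX+) cells were counted by IncuCyte STACK live-cell microscopy at 72 h; biological triplicates. GR is the normalised growth-rate inhibition value (Hafner 2016; 1 = untreated growth, <0 = population shrinking). FV is live/(live+dead) cells, not normalised.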

U2OS [5] = experiment: fractional viability (live cells / total cells); higher = less cell death
Procedure: as §2

U2OS [6] = experiment: GR50 (concentration giving GR = 0.5)
Procedure: as §1

SMILES | FV IC50 (U2OS [1]) [nM] | drug GRADE (U2OS [2]) | GRmin (U2OS [3]) | normalized growth rate inhibition value (U2OS [4]; 0.01 µM) | normalized growth rate inhibition value (U2OS [4]; 0.0316 µM) | normalized growth rate inhibition value (U2OS [4]; 0.1 µM) | normalized growth rate inhibition value (U2OS [4]; 0.316 µM) | normalized growth rate inhibition value (U2OS [4]; 1 µM) | normalized growth rate inhibition value (U2OS [4]; 3.16 µM) | normalized growth rate inhibition value (U2OS [4]; 10 µM) | normalized growth rate inhibition value (U2OS [4]; 31.6 µM) | fractional viability (U2OS [5]; 0.01 µM) | fractional viability (U2OS [5]; 0.0316 µM) | fractional viability (U2OS [5]; 0.1 µM) | fractional viability (U2OS [5]; 0.316 µM) | fractional viability (U2OS [5]; 1 µM) | fractional viability (U2OS [5]; 3.16 µM) | fractional viability (U2OS [5]; 10 µM) | fractional viability (U2OS [5]; 31.6 µM) | GR50 (U2OS [6]) [µM] | normalized growth rate inhibition value (U2OS [4]; 0.000100578 µM) | normalized growth rate inhibition value (U2OS [4]; 0.000317827 µM) | normalized growth rate inhibition value (U2OS [4]; 0.00100433 µM) | normalized growth rate inhibition value (U2OS [4]; 0.00317369 µM) | normalized growth rate inhibition value (U2OS [4]; 0.0100289 µM) | normalized growth rate inhibition value (U2OS [4]; 0.0316912 µM) | normalized growth rate inhibition value (U2OS [4]; 0.100144 µM) | normalized growth rate inhibition value (U2OS [4]; 0.316456 µM) | fractional viability (U2OS [5]; 0.000100578 µM) | fractional viability (U2OS [5]; 0.000317827 µM) | fractional viability (U2OS [5]; 0.00100433 µM) | fractional viability (U2OS [5]; 0.00317369 µM) | fractional viability (U2OS [5]; 0.0100289 µM) | fractional viability (U2OS [5]; 0.0316912 µM) | fractional viability (U2OS [5]; 0.100144 µM) | fractional viability (U2OS [5]; 0.316456 µM)
Nc1ccccc1NC(=O)c1ccc(CNC(=O)OCc2cccnc2)cc1 [Entinostat] | 5800 | 42.5 | -0.906 | 0.972 | 0.969 | 0.929 | 0.883 | 0.741 | 0.504 | -0.304 | -0.726 | 0.979 | 0.97 | 0.973 | 0.964 | 0.933 | 0.814 | 0.201 | 0.0216 | 2.84 |  |  |  |  |  |  |  |  |  |  |  |  |  |  |  | 
CC(C)Oc1ccc(-c2ccccc2)cc1-n1c(CN2CCN(C(=O)COc3ccc(Cl)cc3)CC2)nc2ccccc2c1=O [Erastin 2] | 659 | 24.1 | -0.774 | 0.949 | 0.863 | 0.703 | 0.419 | -0.133 | -0.515 | -0.627 | -0.776 | 0.97 | 0.973 | 0.952 | 0.886 | 0.233 | 0.0768 | 0.0609 | 0.0186 | 0.231 |  |  |  |  |  |  |  |  |  |  |  |  |  |  |  | 
COC(=O)Nc1nc2cc(C(=O)c3ccc(F)cc3)ccc2[nH]1 [Flubendazole] | 10700 | 61.2 | -0.0291 | 0.993 | 1 | 0.892 | 0.706 | 0.286 | 0.11 | -0.01 | -0.0371 | 0.981 | 0.978 | 0.971 | 0.95 | 0.766 | 0.595 | 0.516 | 0.468 | 0.566 |  |  |  |  |  |  |  |  |  |  |  |  |  |  |  | 
COc1cc2c(Oc3ccc(NC(=O)C4(C(=O)Nc5ccc(F)cc5)CC4)cc3F)ccnc2cc1OCCCN1CCOCC1 [Foretinib] | 864 | 39.7 | -0.837 | 0.909 | 0.791 | 0.766 | -0.079 | -0.199 | -0.831 | -0.93 | -0.682 | 0.966 | 0.963 | 0.941 | 0.689 | 0.553 | 0.0154 | 0 | 0.0267 | 0.138 |  |  |  |  |  |  |  |  |  |  |  |  |  |  |  | 
CCNC(=O)c1noc(-c2cc(C(C)C)c(O)cc2O)c1-c1ccc(CN2CCOCC2)cc1 [Luminespib] | 18.6 | 17.6 | -0.319 |  |  |  |  | -0.331 |  |  |  |  |  |  |  | 0.442 |  |  |  | 0.00564 | 0.869 | 0.878 | 0.876 | 0.809 | -0.00384 | -0.331 | -0.365 | -0.239 | 0.99 | 0.99 | 0.989 | 0.983 | 0.844 | 0.419 | 0.436 | 0.464
CC(C)C[C@@H](C=O)NC(=O)[C@H](CC(C)C)NC(=O)[C@H](CC(C)C)NC(=O)OCc1ccccc1 [MG-132] | 2240 | 13.5 | -0.949 | 1.02 | 1.01 | 0.929 | 0.9 | 0.524 | -0.442 | -0.885 | -0.93 | 0.973 | 0.977 | 0.979 | 0.974 | 0.929 | 0.226 | 0.00177 | 0 | 1.03 |  |  |  |  |  |  |  |  |  |  |  |  |  |  |  | 
C=CCn1c(=O)c2cnc(Nc3ccc(N4CCN(C)CC4)cc3)nc2n1-c1cccc(C(C)(C)O)n1 [MK1775] | 584 | 40.7 | -0.689 | 1.15 | 1.03 | 0.664 | 0.061 | -0.346 | -0.56 | -0.681 | -0.762 | 0.978 | 0.977 | 0.948 | 0.725 | 0.294 | 0.125 | 0.0517 | 0.0225 | 0.156 |  |  |  |  |  |  |  |  |  |  |  |  |  |  |  | 
CCOc1cc2ncc(C#N)c(Nc3ccc(OCc4ccccn4)c(Cl)c3)c2cc1NC(=O)/C=C/CN(C)C [Neratinib] | 1970 | 20 |  |  |  |  |  | 0.255 | -0.534 |  |  |  |  |  |  | 0.879 | 0.189 |  |  | 0.346 |  | 0.803 | 0.812 | 0.867 | 0.776 | 0.727 | 0.638 | 0.457 |  | 0.985 | 0.987 | 0.985 | 0.986 | 0.984 | 0.968 | 0.933
